Results from patent US20230242530A1, “8-(AZETIDIN-1-YL)-[1,2,4]TRIAZOLO[1,5-A]PYRIDINYL COMPOUNDS, COMPOSITIONS AND METHODS OF USE THEREOF” (Genentech, Inc., priority 2016, published 2023).

Experiments:
[1] = biological target: T1, isolated recombinant JAK1 kinase domain (Homo sapiens, UniProt P23458); test: JAK enzyme assay, JAK1 kinase domain (Caliper LabChip); type: biochemical; settings: 1.5 nM JAK1, ATP 25 μM, Morrison tight binding model
T1 construct: isolated recombinant JAK1 and JAK2 kinase domain
T1 sequence (P23458 875-1153 limits assumed): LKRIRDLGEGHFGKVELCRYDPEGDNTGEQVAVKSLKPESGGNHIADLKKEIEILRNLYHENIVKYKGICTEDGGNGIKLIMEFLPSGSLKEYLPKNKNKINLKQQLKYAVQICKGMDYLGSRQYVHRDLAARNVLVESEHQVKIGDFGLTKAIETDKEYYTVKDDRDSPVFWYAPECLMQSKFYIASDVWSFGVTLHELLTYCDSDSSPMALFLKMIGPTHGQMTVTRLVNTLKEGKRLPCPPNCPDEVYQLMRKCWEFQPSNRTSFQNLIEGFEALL
Outline: (§1)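 Ki values were obtained by Morrison tight-binding analysis with ATP-competitive correction, Ki=Ki,app/(1+[ATP]/Km,app). Phosphorylated versus total fluorescent JAK3-derived peptide was quantified on a Caliper LabChip. Kinase reactions with the isolated recombinant domains ran 30 min at 22 °C before EDTA quench (50 mM final).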

[2] = biological target: T2, isolated recombinant JAK2 kinase domain (Homo sapiens, UniProt O60674); test: JAK enzyme assay, JAK2 kinase domain (Caliper LabChip); type: biochemical; settings: 0.2 nM JAK2, ATP 25 μM, Morrison tight binding model
T2 construct: isolated recombinant JAK1 and JAK2 kinase domain
T2 sequence (O60674 849-1124 limits assumed): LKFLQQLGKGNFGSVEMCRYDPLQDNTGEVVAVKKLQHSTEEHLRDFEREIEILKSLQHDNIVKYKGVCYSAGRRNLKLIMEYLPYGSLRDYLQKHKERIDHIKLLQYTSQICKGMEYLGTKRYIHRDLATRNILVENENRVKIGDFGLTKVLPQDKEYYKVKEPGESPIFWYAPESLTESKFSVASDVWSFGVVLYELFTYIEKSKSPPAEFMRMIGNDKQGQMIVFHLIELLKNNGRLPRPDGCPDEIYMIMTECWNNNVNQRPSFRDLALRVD
Outline: as §1

[3] = tested on: JAK1-dependent STAT6 phosphorylation downstream of IL-13 stimulation in BEAS-2B cells; test: JAK1 pathway assay in cell lines: IL-13 p-STAT6 BEAS-2B; type: cell-based; settings: BEAS-2B human bronchial epithelial cells, 1 hr compound, IL-13 15 min, MSD readout
Outline: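 Phospho-STAT6 read by MSD electrochemiluminescence in lysates of BEAS-2B cells kept in complete growth medium. Cells were pretreated 1 hr at 37 °C with compound (0.2% DMSO final) and stimulated 15 min with IL-13 at its EC90; EC50 is the concentration halving signal versus DMSO.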

| Structure (SMILES) | Ki [1] [nM] | Ki [2] [nM] | EC50 [3] [nM] |
| --- | --- | --- | --- |
| COc1ccc(CCC2(CC#N)CN(c3cccn4nc(Nc5cnn(CC(=O)N6CCN(C)CC6)c5)nc34)C2)cc1 [Example 117, 2-[3-[2-(4-methoxyphenyl)ethyl]-1-[2-[[1-[2-(4-methylpiperazin-1-yl)-2-oxo-ethyl]pyrazol-4-yl]amino]-[1,2,4]triazolo[1,5-a]pyridin-8-yl]azetidin-3-yl]acetonitrile] | 0.4 | 2.4 | 20 |
| Cc1ccccc1-c1cnn(C2(CC#N)CN(c3cccn4nc(Nc5cnn(CC(=O)N6CCC(NCC7(C#N)CC7)CC6)c5)nc34)C2)c1 [Example 118, 1-[[[1-[2-[4-[[8-[3-(cyanomethyl)-3-[4-(o-tolyl)pyrazol-1-yl]azetidin-1-yl]-[1,2,4]triazolo[1,5-a]pyridin-2-yl]amino]pyrazol-1-yl]acetyl]-4-piperidyl]amino]methyl]cycl opropanecarbonitrile] | 1.1 | 7.3 | 99 |
| CSc1cnn(C2(CC#N)CN(c3cccn4nc(Nc5cnn(CC(=O)N6CCN(C)CC6)c5)nc34)C2)c1 [Example 119] | 0.3 | 0.2 | 16 |
| Cc1nn(C2(CC#N)CN(c3cccn4nc(Nc5cnn(CC(=O)N6CCN(C)CC6)c5)nc34)C2)cc1C1CCCCC1 [Example 120, 2-[3-(4-cyclohexyl-3-methyl-pyrazol-1-yl)-1-[2-[[1-[2-(4-methylpiperazin-1-yl)-2-oxo-ethyl]pyrazol-4-yl]amino]-[1,2,4]triazolo[1,5-a]pyridin-8-yl]azetidin-3-yl]acetonitrile] | 0.8 | 6.1 | 46 |
| N#CCC1(n2cc(C(F)(F)F)cn2)CN(c2cccn3nc(Nc4ccc5c(c4)CCN(C4COC4)C5)nc23)C1 [Example 121, 2-[1-[2-[[2-(oxetan-3-yl)-3,4-dihydro-1H-isoquinolin-6-yl]amino]-[1,2,4]triazolo[1,5-a]pyridin-8-yl]-3-[4-(trifluoromethyl)pyrazol-1-yl]azetidin-3-yl]acetonitrile] | 0.5 | 4.4 | 31 |
| Cc1ccccc1-c1cnn(C2(CC#N)CN(c3cccn4nc(Nc5cnn(CC(=O)N6CCN(C7COC7)CC6)c5)nc34)C2)c1 [Example 122, formic acid;2-[3-[4-(o-tolyl)pyrazol-1-yl]-1-[2-[[1-[2-[4-(oxetan-3-yl)piperazin-1-yl]-2-oxo-ethyl]pyrazol-4-yl]amino]-[1,2,4]triazolo[1,5-a]pyridin-8-yl]azetidin-3-yl]acetonitrile] | 0.5 | 3.7 | 43 |
| Cc1ccccc1-c1cnn(C2(CC#N)CN(c3cccn4nc(Nc5cnn(CC(=O)N6CCC(N7CCOCC7)CC6)c5)nc34)C2)c1 [Example 123] | 0.3 | 1.3 | 87 |
| Cc1ccccc1-c1cnn(C2(CC#N)CN(c3cccn4nc(Nc5cnn(CC(=O)N6CCC(N(C)C7COC7)CC6)c5)nc34)C2)c1 [Example 124] | 2 | 3.8 | 85 |
| N#CCC1(n2cc(C(F)(F)F)cn2)CN(c2cccn3nc(Nc4cnn(CC(=O)N5CCN(CCO)CC5)c4)nc23)C1 [Example 125, formic acid;2-[1-[2-[[1-[2-[4-(2-hydroxyethyl)piperazin-1-yl]-2-oxo-ethyl]pyrazol-4-yl]amino]-[1,2,4]triazolo[1,5-a]pyridin-8-yl]-3-[4-(trifluoromethyl)pyrazol-1-yl]azetidin-3-yl]acetonitrile] | 0.4 | 0.4 | 21 |
| CN1CCN(C(=O)Cn2cc(Nc3nc4c(N5CC(CC#N)(Cc6ccccc6Cl)C5)cccn4n3)cn2)CC1 [Example 126, 2-[3-[(2-chlorophenyl)methyl]-1-[2-[[1-[2-(4-methylpiperazin-1-yl)-2-oxo-ethyl]pyrazol-4-yl]amino]-[1,2,4]triazolo[1,5-a]pyridin-8-yl]azetidin-3-yl]acetonitrile] | 0.2 | 0.4 | 12 |
| CCc1cnn(C2(CC#N)CN(c3cccn4nc(Nc5cnn(C)c5)nc34)C2)c1 [Example 127, 2-(3-(4-ethyl-1H-pyrazol-1-yl)-1-(2-((1-methyl-H-pyrazol-4-yl)amino)-[1,2,4]triazolo[1,5-a]pyridin-8-yl)azetidin-3-yl)acetonitrile] | 0.2 | 0.4 | 10 |
| N#CCC1(n2cc(Br)cn2)CN(c2cccn3nc(Nc4cn[nH]c4)nc23)C1 [Example 128, 2-[3-(4-bromopyrazol-1-yl)-1-[2-(1H-pyrazol-4-ylamino)-[1,2,4]triazolo[1,5-a]pyridin-8-yl]azetidin-3-yl]acetonitrile] | 0.2 | 0.2 | 8 |
| N#CCC1(n2cc(Br)cn2)CN(c2cccn3nc(Nc4cnn(CC(=O)N5CCN(C6CCOCC6)CC5)c4)nc23)C1 [Example 129, 2-[3-(4-bromopyrazol-1-yl)-1-[2-[[1-[2-oxo-2-(4-tetrahydropyran-4-ylpiperazin-1-yl)ethyl]pyrazol-4-yl]amino]-[1,2,4]triazolo[1,5-a]pyridin-8-yl]azetidin-3-yl]acetonitrile] | 0.3 | 0.8 | 49 |
| N#CCC1(n2cc(Br)cn2)CN(c2cccn3nc(Nc4cnn(CC(=O)N5CCC(N6CCOCC6)CC5)c4)nc23)C1 [Example 130, 2-[3-(4-bromopyrazol-1-yl)-1-[2-[[1-[2-(4-morpholino-1-piperidyl)-2-oxo-ethyl]pyrazol-4-yl]amino]-[1,2,4]triazolo[1,5-a]pyridin-8-yl]azetidin-3-yl]acetonitrile] | 0.4 | 1.1 | 117 |
| N#CCC1(n2cc(C(F)(F)F)cn2)CN(c2cccn3nc(Nc4cn[nH]c4)nc23)C1 [Example 131, 2-[1-[2-(1H-pyrazol-4-ylamino)-[1,2,4]triazolo[1,5-a]pyridin-8-yl]-3-[4-(trifluoromethyl)pyrazol-1-yl]azetidin-3-yl]acetonitrile] | 0.2 | 0.4 | 43 |
| Cn1cc(Nc2nc3c(N4CC(CC#N)(n5cc(Br)cn5)C4)cccn3n2)cn1 [Example 132, 2-[3-(4-bromopyrazol-1-yl)-1-[2-[(l-methylpyrazol-4-yl)amino]-[1,2,4]triazolo[1,5-a]pyridin-8-yl]azetidin-3-yl]acetonitrile] | 0.3 | 0.5 | 51 |
| CCc1cnn(C2(CC#N)CN(c3cccn4nc(Nc5cnn(CCO)c5)nc34)C2)c1 [Example 133, 2-[3-(4-ethylpyrazol-1-yl)-1-[2-[[1-(2-hydroxyethyl)pyrazol-4-yl]amino]-[1,2,4]triazolo[1,5-a]pyridin-8-yl]azetidin-3-yl]acetonitrile] | 0.3 | 0.3 | 12 |
| N#CCC1(n2cc(C(F)(F)F)cn2)CN(c2cccn3nc(Nc4cnn(CCO)c4)nc23)C1 [Example 134, 2-[1-[2-[[1-(2-hydroxyethyl)pyrazol-4-yl]amino]-[1,2,4]triazolo[1,5-a]pyridin-8-yl]-3-[4-(trifluoromethyl)pyrazol-1-yl]azetidin-3-yl]acetonitrile] | 0.3 | 0.3 | 13 |
